# Laboratory results reported in article PMC7311426, “An amphipathic peptide with antibiotic activity against multidrug-resistant Gram-negative bacteria” (Nature Communications, 2020).
# Read-outs that look alike come from different tables or passages of the source. Residues, ends and D or L forms follow the SMILES beside them.
# What was measured:
# P. aeruginosa [1] = details: P. aeruginosa ATCC 27853; quality control range printed beside broth microdilution MIC of parent strain; cited from earlier work
# [2] = tested on: E. coli clinical isolates; assay: microbe, parasite or virus in culture
# Outline: (§1)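 MIC90 from CLSI broth microdilution (M07-A9) in two clinical-isolate panels. US panel (331 isolates, 2010-2012): AA139 diluted in 0.01% acetic acid/0.1% BSA. Worldwide panel (445 isolates, 2011-2013, four regions): CAMHB, with 0.002% Tween 80 added for AA139 and polymyxin B.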
# [3] = tested on: K. pneumoniae clinical isolates; assay: microbe, parasite or virus in culture
# Outline: as §1
# [4] = tested on: P. aeruginosa clinical isolates; assay: microbe, parasite or virus in culture
# Outline: as §1
# E. coli = tested on: E. coli; parameters: method as in Hasman H, et al. Euro. Surveill. (2015) 20:49; details: E. coli ESBL20150072, mcr-1 pos; ESBL; CAMHB; comparator antibiotics; ref Hasman H, et al. Euro. Surveill. (2015) 20:49; cited from earlier work
# L. monocytogenes = assay: microbe, parasite or virus in culture
# Outline: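 MICs were scored by eye after 18-20 h static incubation at 37 °C, with bacteria at 5 × 10^5 CFU mL^−1 in MHB. Peptides were serially diluted 2-fold over 12 points, top 128 or 64 μg mL^−1. CAMHB (CLSI) and 1% agarose-MHB variants were also run, at least six replicates.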
# P. aeruginosa [5] = assay: microbe, parasite or virus in culture; assay type: cell-based, Pseudomonas aeruginosa; parameters: MIC, Survanta (5%) replicates: unit not given beside the values
# [6] = tested on: P. aeruginosa (UNT138-1 & ATCC 27853); assay: microbe, parasite or virus in culture; assay type: cell-based, Pseudomonas aeruginosa
# Protocol: (§2) The test media was cation-adjusted MHB (CAMHB, Becton Dickinson) supplemented with 2% Noble Agar (Becton Dickinson) and additionally for AA139 with 0.1% BSA. The agar dilution MIC values were determined as recommended by Clinical and Laboratory Standards Institute (CLSI)[47]. […] The inoculum for the spontaneous mutation plates targeted 10^9 to 10^10 colony-forming units (CFU) per plate. The viable count of each suspension was determined by plating serial ten-fold dilutions onto MHB/NA in duplicate. In addition, agar plates without drug were inoculated as positive controls. Plates were inspected for growth at both 24 and 48 h. Colony counts were determined manually. Using the counts at 48 h, the spontaneous mutation frequency was calculated using the following equation: (average number of colonies from duplicate selection plates)/(total number of cells inoculated onto each plate). If there were no colonies on the antibiotic selection plates, the spontaneous mutation frequency was reported as less than the frequency observed with one colony to indicate that the spontaneous mutation frequency was less than the limit of detection (one CFU).
# [7] = tested on: E. coli (AID#172 & ATCC 25922); assay: microbe, parasite or virus in culture; assay type: cell-based, Escherichia coli
# Protocol: as §2
# [8] = Worldwide isolates 2011-2013, E. coli n = 112
# [9] = Worldwide isolates 2011-2013, K. pneumoniae n = 114
# [10] = Worldwide isolates 2011-2013, P. aeruginosa n = 111
# [11] = P. aeruginosa ATCC 27853 control strain, n=2 to 6, mode or median
# [12] = P. aeruginosa FADDI-070 MDR, PmxR, n=2 to 6, mode or median
compound,measurement,setting,value
C[C@H]1[C@H](NC(=O)/C(=N\OC(C)(C)C(=O)O)c2csc(N)n2)C(=O)N1S(=O)(=O)O [AZT],MIC Quality control range,P. aeruginosa [1],2 to 8 µg/mL
NC[C@H]1O[C@H](O[C@H]2[C@H](O)[C@@H](O[C@H]3O[C@H](CO)[C@@H](O)[C@H](N)[C@H]3O)[C@H](N)C[C@@H]2N)[C@H](N)C[C@@H]1O [TOB],MIC Quality control range,P. aeruginosa [1],0.25 to 1 µg/mL
"C[C@@H](O)[C@H]1C(=O)N2C(C(=O)O)=C(S[C@@H]3CN[C@H](C(=O)N(C)C)C3)[C@H](C)[C@H]12 [Meropenem, meropenem, reference compound]",MIC90,"[2]; Escherichia coli, US isolates 2010–2012, E. coli MDR, n = 31",16 µg/mL
same,MIC90,"[2]; Escherichia coli, US isolates 2010–2012, E. coli Non-MDR, n = 24",0.03 µg/mL
same,MIC50,[2]; [8],≤ 0.015 µg/mL
same,MIC90,[2]; [8],0.03 µg/mL
same,MIC90,"[3]; Klebsiella pneumoniae, US isolates 2010–2012, K. pneumoniae Non-MDR, n = 24",0.06 µg/mL
same,MIC90,"[3]; Klebsiella pneumoniae, US isolates 2010–2012, K. pneumoniae XDR, n = 55",> 16 µg/mL
same,MIC50,[3]; [9],0.03 µg/mL
same,MIC90,[3]; [9],> 16 µg/mL
same,MIC90,"[4]; Pseudomonas aeruginosa, US isolates 2010–2012, P. aeruginosa Non-MDR, n = 41",16 µg/mL
same,MIC90,"[4]; Pseudomonas aeruginosa, US isolates 2010–2012, P. aeruginosa XDR, n = 37",> 16 µg/mL
same,MIC50,[4]; [10],1 µg/mL
same,MIC90,[4]; [10],> 16 µg/mL
same,MIC Quality control range,P. aeruginosa [1],0.12 to 1 µg/mL
same,BMD MIC,E. coli,≤1 µg/mL
same,MIC,"L. monocytogenes; Listeria monocytogenes, ATCC19112, read-out: BMD MIC",0.5 µg/mL
colistin,"MIC, Survanta (5%)","P. aeruginosa [5]; P. aeruginosa ATCC 27853, control strain, BMD with 5% Survanta lung surfactant, mode, or median where no mode, n=4 to 6, where n=2 differs the higher value",0.25
same,"MIC, Survanta (5%) replicates","P. aeruginosa [5]; P. aeruginosa ATCC 27853, control strain, BMD with 5% Survanta lung surfactant, replicate 1",0.5
same,"MIC, Survanta (5%) replicates","P. aeruginosa [5]; P. aeruginosa ATCC 27853, control strain, BMD with 5% Survanta lung surfactant, replicate 2",0.5
same,"MIC, Survanta (5%) replicates","P. aeruginosa [5]; P. aeruginosa ATCC 27853, control strain, BMD with 5% Survanta lung surfactant, replicate 3",0.125
same,"MIC, Survanta (5%) replicates","P. aeruginosa [5]; P. aeruginosa ATCC 27853, control strain, BMD with 5% Survanta lung surfactant, replicate 4",0.125
same,"MIC, Serum (50%)","P. aeruginosa [5]; P. aeruginosa ATCC 27853, control strain, BMD with 50% human serum, mode, or median where no mode, n=4 to 6, where n=2 differs the higher value",0.25
same,"MIC, Serum (50%) replicates","P. aeruginosa [5]; P. aeruginosa ATCC 27853, control strain, BMD with 50% human serum, replicate 1",0.5
same,"MIC, Serum (50%) replicates","P. aeruginosa [5]; P. aeruginosa ATCC 27853, control strain, BMD with 50% human serum, replicate 2",0.5
same,"MIC, Serum (50%) replicates","P. aeruginosa [5]; P. aeruginosa ATCC 27853, control strain, BMD with 50% human serum, replicate 3",0.25
same,"MIC, Serum (50%) replicates","P. aeruginosa [5]; P. aeruginosa ATCC 27853, control strain, BMD with 50% human serum, replicate 4",0.25
same,"MIC, Serum (50%) replicates","P. aeruginosa [5]; P. aeruginosa ATCC 27853, control strain, BMD with 50% human serum, replicate 5",0.125
same,"MIC, Serum (50%) replicates","P. aeruginosa [5]; P. aeruginosa ATCC 27853, control strain, BMD with 50% human serum, replicate 6",0.125
same,"MIC, Serum (50%)",P. aeruginosa [5]; [11],0.25 µg/mL
same,"MIC, Survanta (5%)",P. aeruginosa [5]; [11],0.25 µg/mL
same,"MIC, Survanta (5%)","P. aeruginosa [5]; P. aeruginosa FADDI-070, MDR, PmxR, BMD with 5% Survanta lung surfactant, mode, or median where no mode, n=4 to 6, where n=2 differs the higher value",≥64
same,"MIC, Survanta (5%) replicates","P. aeruginosa [5]; P. aeruginosa FADDI-070, MDR, PmxR, BMD with 5% Survanta lung surfactant, replicate 1",64
same,"MIC, Survanta (5%) replicates","P. aeruginosa [5]; P. aeruginosa FADDI-070, MDR, PmxR, BMD with 5% Survanta lung surfactant, replicate 2",64
same,"MIC, Survanta (5%) replicates","P. aeruginosa [5]; P. aeruginosa FADDI-070, MDR, PmxR, BMD with 5% Survanta lung surfactant, replicate 3",>64
same,"MIC, Survanta (5%) replicates","P. aeruginosa [5]; P. aeruginosa FADDI-070, MDR, PmxR, BMD with 5% Survanta lung surfactant, replicate 4",>64
same,"MIC, Serum (50%) replicates","P. aeruginosa [5]; P. aeruginosa FADDI-070, MDR, PmxR, BMD with 50% human serum, replicate 1",0.25
same,"MIC, Serum (50%) replicates","P. aeruginosa [5]; P. aeruginosa FADDI-070, MDR, PmxR, BMD with 50% human serum, replicate 2",0.125
same,"MIC, Serum (50%)","P. aeruginosa [5]; P. aeruginosa FADDI-070, MDR, PmxR, BMD with 50% human serum, where n=2 differs the higher value is recorded",0.25
same,"MIC, Serum (50%)",P. aeruginosa [5]; [12],0.25 µg/mL
same,"MIC, Survanta (5%)",P. aeruginosa [5]; [12],≥ 64 µg/mL
same,BMD MIC,E. coli,>4 µg/mL
same,BMD MIC,"L. monocytogenes; L. monocytogenes ATCC 19112, MHB, mode of 6 replicates",16 µg/mL
same,Agar (Noble) Dilution MIC,[6]; P. aeruginosa ATCC 27853,2 µg/mL
same,Noble agar dilution MIC,[6]; P. aeruginosa ATCC 27853,2 µg/mL
same,Noble agar dilution MIC,[6]; P. aeruginosa UNT138-1,2 µg/mL
same,Noble agar dilution MIC,[7]; E. coli AID#172,1 µg/mL
same,Spontaneous frequency of resistance at 4× MIC,"[7]; E. coli AID#172, counts at 48 h, >TC = colonies too numerous to count",>TC
same,Agar (Noble) Dilution MIC,[7]; E. coli ATCC 25922,1 µg/mL
same,Noble agar dilution MIC,[7]; E. coli ATCC 25922,1 µg/mL
"CC(C)[C@@H]1NC(=O)[C@H](Cc2ccc(O)cc2)NC(=O)[C@H](Cc2c[nH]c3ccccc23)NC(=O)[C@@H](NC(=O)[C@H](Cc2ccccc2)NC(=O)CN)CSSC[C@@H](C(=O)N[C@@H](CC(N)=O)C(=O)O)NC(=O)[C@H](CCCNC(=N)N)NC(=O)[C@H](CCCNC(=N)N)NC(=O)[C@H](Cc2ccc(O)cc2)NC(=O)[C@@H]2CSSC[C@H](NC1=O)C(=O)N[C@@H](C)C(=O)N[C@@H](CCCNC(=N)N)C(=O)N[C@@H](CCCNC(=N)N)C(=O)N[C@@H](CC(N)=O)C(=O)NCC(=O)N[C@@H](C)C(=O)N[C@@H](CCCNC(=N)N)C(=O)N[C@@H](C(C)C)C(=O)N2 [AA139] (HELM PEPTIDE1{G.F.C.W.Y.V.C.A.R.R.N.G.A.R.V.C.Y.R.R.C.N}$PEPTIDE1,PEPTIDE1,3:R3-20:R3|PEPTIDE1,PEPTIDE1,7:R3-16:R3$$$V2.0)","MIC, Serum (50%)",P. aeruginosa [5]; [12],8 µg/mL
same,"MIC, Survanta (5%)",P. aeruginosa [5]; [12],8 µg/mL
same,MIC against colistin-resistant isolates (did not surpass),"[2]; E. coli with a colistin MIC of 4 to 16 μg mL^−1, US panel",≤ 0.5 µg/mL
same,MIC90,"[2]; US isolates 2010–2012, E. coli MDR, n = 31",0.5 µg/mL
same,MIC90,"[2]; Worldwide isolates 2011–2013, E. coli incl. non-MDR, MDR, XDR, n = 112",0.5 µg/mL
same,MIC90 (E. coli),[2]; clinical isolates,1.0 µg/mL
same,MIC90,"[3]; US isolates 2010–2012, K. pneumoniae Non-MDR, n = 24",4 µg/mL
same,MIC90,"[3]; Worldwide isolates 2011–2013, K. pneumoniae incl. non-MDR, MDR, XDR, n = 114",4 µg/mL
same,MIC against colistin-resistant isolates (did not surpass),"[3]; all but two K. pneumoniae isolates with a colistin MIC of 8–≥32 μg mL^−1, US panel",≤ 4 µg/mL
same,MIC against colistin-resistant isolates (did not surpass),"[4]; P. aeruginosa with a colistin MIC of >32 μg mL^−1, US panel",≤ 8 µg/mL
same,MIC90,"[4]; US isolates 2010–2012, P. aeruginosa Non-MDR, n = 41",8 µg/mL
same,MIC90,"[4]; US isolates 2010–2012, P. aeruginosa XDR, n = 37",4 µg/mL
same,MIC90,"[4]; Worldwide isolates 2011–2013, P. aeruginosa incl. non-MDR, MDR, XDR, n = 111",8 µg/mL
same,MIC90 (P. aeruginosa),[4]; clinical isolates,8.0 µg/mL
same,BMD MIC,L. monocytogenes,2 µg/mL
same,Agar (Noble) Dilution MIC,[6]; P. aeruginosa ATCC 27853,8 µg/mL
same,Agar (Noble) Dilution MIC,[6]; P. aeruginosa UNT138-1,16 µg/mL
same,Agar (Noble) Dilution MIC,[7]; E. coli ATCC 25922,8 µg/mL
same,Agar (Noble) Dilution MIC,[7]; E. coli AUD172,8 µg/mL
